Results published in patent US20210207188A1, “BETA-LACTAM COMPOUNDS AND METHODS OF USE THEREOF” (priority 2018, published 2021).

Tests used:
[1] = system: beta-lactamases, including NDM-1, IMP-1, VIM-2, KPC-2, OXA-48, AmpC, and TEM; assay: Fluorescence-based activity assay, whole panel of tested beta-lactamases; assay type: biochemical; settings: for changes in the fluorescence signal with the tested beta-lactamases: probe 2.0 μM, MCW-010 within 20 minutes; for specificity among the tested beta-lactamases: conclusion from fluorescence signals
Procedure: (§1) Recombinant his-tagged beta-lactamases, including NDM-1, IMP-1, KPC-2, VIM-2 and OXA-48 were overexpressed in Escherichia coli. The enzymes were purified using HisTrap Ni-NTA columns. AmpC and TEM were purchased from commercial sources.
(§2) The fluorescence-based activity assays were performed in phosphate-buffer saline. The concentration of some of the compounds were determined by boiling the compounds in PBS solution until fluorescence signal was saturated. The amount of released fluorophore was quantified via fluorescence spectroscopy by comparing to a corresponding calibration curve.
Among the tested beta-lactamases, NDM-1, IMP-1, VIM-2, KPC-2 and OXA-48 are carbapenemases, whereas AmpC and TEM are not. Nitrocefin was used as a control to test the activity of the beta-lactamases because it can be hydrolyzed by a wide range of beta-lactamases.

IMP-1 = biological target: T1, IMP-1 (Serratia marcescens, UniProt P52699); assay type: biochemical; settings: IMP-1; for fluorescence signal over time: probe 2.0 μM (MCW-002 1.1 μM, MCW-011 0.5 μM), PBS
T1 construct: His tag; made in house; host or cells: Escherichia coli
Procedure: as §1, §2

KPC-2 = biological target: T2, KPC-2 (Klebsiella pneumoniae, UniProt Q9F663); assay type: biochemical; settings: for fluorescence signal over time: probe 2.0 μM (MCW-002 1.1 μM, MCW-011 0.5 μM), PBS
T2 construct: His tag; made in house; host or cells: Escherichia coli
Procedure: as §1, §2

NDM-1 = biological target: T3, NDM-1 (Klebsiella pneumoniae, UniProt C7C422); assay type: biochemical; settings: for fluorescence signal over time: probe 2.0 μM (MCW-002 1.1 μM, MCW-011 0.5 μM), PBS
T3 construct: His tag; made in house; host or cells: Escherichia coli
Procedure: as §1, §2

VIM-2 = biological target: T4, VIM-2 (Escherichia coli, UniProt Q5U7L7); assay type: biochemical; settings: for fluorescence signal over time: probe 2.0 μM (MCW-011 0.5 μM), PBS
T4 construct: His tag; made in house; host or cells: Escherichia coli
Procedure: as §1, §2

OXA-48 = biological target: T5, OXA-48 (Klebsiella pneumoniae, UniProt Q6XEC0); assay type: biochemical; settings: for fluorescence signal over time: probe 2.0 μM (MCW-011 0.5 μM), PBS
T5 construct: His tag; made in house; host or cells: Escherichia coli
Procedure: as §1, §2

AmpC = assay: Activity of beta-lactamases towards probes (fluorescence-based activity assay), AmpC; assay type: biochemical; settings: probe 2.0 μM (MCW-002 1.1 μM, MCW-011 0.5 μM), PBS
Procedure: as §1, §2

TEM = biological target: T6, TEM (Escherichia coli, UniProt P62593); assay: Activity of beta-lactamases towards probes (fluorescence-based activity assay), TEM; assay type: biochemical; settings: probe 2.0 μM (MCW-002 1.1 μM, MCW-011 0.5 μM), PBS
T6 construct: purchased
Procedure: as §1, §2

[2] = system: clinical isolates (CPE, Carbapenemase Producing Enterobacteriaceae, and Non CPE strains); assay: Selectivity of probes with clinical isolates in lysis buffer (visible light and UV light); assay type: cell-based; settings: probe 10 μM
Procedure: The selectivity of some probes were evaluated with clinical isolates. The carbapenemases presence in the bacteria (CPE, i.e., Carbapenemase Producing Enterobacteriaceae) were verified by PCR (Polymerase Chain Reaction). 1 μL loop-full of each test bacterium from overnight-cultured LB agar plate were added to 100 μL PBS buffer with 0.5% CHAPS. The bacteria were vortexed to give a homogenious suspension and incubated for 15 min. To each of the bacteria-lysis buffer mixture (20 μL) were added quick test reagents (Probes (Final concentration=10 μM), CarbaNP solution A and CarbaNP solution B). CarbaNP solutions A and B were freshly prepared according to CLSI protocol, where solution A contains 10 mM zinc sulphate and phenol red buffer at pH=7.8±0.1 and solution B was a mixture of solution A with 3 mg/mL imipenem.

Structure (SMILES) | changes in the fluorescence signal with the tested beta-lactamases [1] | fluorescence signal over time (IMP-1) | fluorescence signal over time (KPC-2) | fluorescence signal over time (NDM-1) | fluorescence signal over time (VIM-2) | fluorescence signal over time (AmpC) | fluorescence signal over time (TEM) | specificity among the tested beta-lactamases [1] | other results
C[C@@H](O)[C@H]1C(=O)N2C(C(=O)O)=C(c3ccc(COc4ccc5nc6ccc(=O)cc-6oc5c4)cc3[N+](=O)[O-])C[C@H]12 [MCW-010, (5R,6S)-6-((R)-1-hydroxyethyl)-3-(2-nitro-4-(((3-oxo-3H-phenoxazin-7-yl)oxy)methyl)phenyl)-7-oxo-1-azabicyclo[3.2.0]hept-2-ene-2-carboxylic acid] | did not exhibited changes in the fluorescence signal |  |  |  |  |  |  |  | 
COc1cc(COc2ccc3nc4ccc(=O)cc-4oc3c2)ccc1OC/C=C/C1=C(C(=O)N(C)O)N2C(=O)[C@H]([C@@H](C)O)[C@H]2C1 [MCW-006, (5R,6S)-N-hydroxy-6-((R)-1-hydroxyethyl)-3-((E)-3-(2-methoxy-4-(((3-oxo-3H-phenoxazin-7-yl)oxy)methyl)phenoxy)prop-1-en-1-yl)-N-methyl-7-oxo-1-azabicyclo[3.2.0]hept-2-ene-2-carboxamide] | unreactive to the tested beta-lactamases |  |  |  |  |  |  |  | 
COc1ccc(-c2c3ccc(=O)cc-3oc3cc(OCc4ccc(C5=C(C(=O)O)N6C(=O)[C@H]([C@@H](C)O)[C@H]6C5)cc4)ccc23)c(C)c1 [MCW-009, (5R,6S)-6-((R)-1-hydroxyethyl)-3-(4-(((9-(4-methoxy-2-methylphenyl)-3-oxo-3H-xanthen-6-yl)oxy)methyl)phenyl)-7-oxo-1-azabicyclo[3.2.0]hept-2-ene-2-carboxylic acid] |  | increase in the fluorescent signal | increase in the fluorescent signal | increase in the fluorescent signal | increase in the fluorescent signal |  |  |  | time until hydrolysis reaction complete (fluorescent signal plateaued) (IMP-1; probe 2.0 μM): > 20 min; time until hydrolysis reaction complete (fluorescent signal plateaued) (KPC-2; probe 2.0 μM): > 20 min; time until hydrolysis reaction complete (fluorescent signal plateaued) (NDM-1; probe 2.0 μM): > 20 min; time until hydrolysis reaction complete (fluorescent signal plateaued) (VIM-2; probe 2.0 μM): > 20 min
C[C@@H](O)[C@H]1C(=O)N2C(C(=O)O)=C(c3ccc(COc4ccc5nc6ccc(=O)cc-6oc5c4)cc3)C[C@H]12 [MCW-008, (5R,6S)-6-((R)-1-hydroxyethyl)-7-oxo-3-(4-(((3-oxo-3H-phenoxazin-7-yl)oxy)methyl)phenyl)-1-azabicyclo[3.2.0]hept-2-ene-2-carboxylic acid] |  | increase in the fluorescent signal | increase in the fluorescent signal | increase in the fluorescent signal | increase in the fluorescent signal | minimal changes in the fluorescent signal | minimal changes in the fluorescent signal | specific for carbapenemases | fluorescence signal over time (OXA-48): increase in the fluorescent signal
COc1ccc(-c2c3ccc(=O)cc-3oc3cc(OCc4ccc(OC/C=C/C5=C(C(=O)O)N6C(=O)[C@H]([C@@H](C)O)[C@H]6S5)c(OC)c4)ccc23)c(C)c1 [MCW-011, (5R,6S)-6-((R)-1-hydroxyethyl)-3-((E)-3-(2-methoxy-4-(((9-(4-methoxy-2-methylphenyl)-3-oxo-3H-xanthen-6-yl)oxy)methyl)phenoxy)prop-1-en-1-yl)-7-oxo-4-thia-1-azabicyclo[3.2.0]hept-2-ene-2-carboxylic acid] |  | increase in the fluorescent signal | increase in the fluorescent signal | increase in the fluorescent signal | increase in the fluorescent signal | minimal changes in the fluorescent signal | minimal changes in the fluorescent signal | specific for carbapenemases | fluorescence signal over time (OXA-48): increase in the fluorescent signal
COc1ccc(-c2c3ccc(=O)cc-3oc3cc(OCc4ccc(OC/C=C/C5=C(C(=O)O)N6C(=O)[C@H]([C@@H](C)O)[C@H]6C5)c(OC)c4)ccc23)c(C)c1 [MCW-004, (5R,6S)-6-((R)-1-hydroxyethyl)-3-((E)-3-(2-methoxy-4-(((9-(4-methoxy-2-methylphenyl)-3-oxo-3H-xanthen-6-yl)oxy)methyl)phenoxy)prop-1-en-1-yl)-7-oxo-1-azabicyclo[3.2.0]hept-2-ene-2-carboxylic acid] |  |  |  |  |  |  |  |  | 3S/k (detection limit of the probe towards the carbapenemase) (IMP-1): 0.328 pM; Kcat (IMP-1; Michaelis-Menten kinetics): 47.3 ± 3.34 s⁻¹; Km (IMP-1; Michaelis-Menten kinetics): 1740 ± 290 nM; 3S/k (detection limit of the probe towards the carbapenemase) (KPC-2): 5.28 pM; Kcat (KPC-2; Michaelis-Menten kinetics): 2.36 ± 0.22 s⁻¹; Km (KPC-2; Michaelis-Menten kinetics): 3.41 ± 0.59 µM; 3S/k (detection limit of the probe towards the carbapenemase) (NDM-1): 0.546 pM; Kcat (NDM-1; Michaelis-Menten kinetics): 23.5 ± 0.98 s⁻¹; Km (NDM-1; Michaelis-Menten kinetics): 1570 ± 160 nM; 3S/k (detection limit of the probe towards the carbapenemase) (OXA-48): 24.9 pM; Kcat (OXA-48; Michaelis-Menten kinetics): 10.2 ± 0.74 s⁻¹; Km (OXA-48; Michaelis-Menten kinetics): 1090 ± 120 nM; 3S/k (detection limit of the probe towards the carbapenemase) (VIM-2): 5.37 pM; Kcat (VIM-2; Michaelis-Menten kinetics): 2.28 ± 0.07 s⁻¹; Km (VIM-2; Michaelis-Menten kinetics): 1880 ± 130 nM; signal with panel of clinical isolates ([2]; incubated for 15 min): observable fluorogenic signal in CPE strains but not the Non CPE strains; signal with panel of clinical isolates ([2]; incubated for 120 min): observable fluorogenic signal in CPE strains but not the Non CPE strains
COC(=O)C1=C(/C=C/COc2ccc(COc3ccc4nc5ccc(=O)cc-5oc4c3)cc2OC)C[C@@H]2[C@@H]([C@@H](C)O)C(=O)N12 [MCW-003, Methyl (5R,6S)-6-((R)-1-hydroxyethyl)-3-((E)-3-(2-methoxy-4-(((3-oxo-3H-phenoxazin-7-yl)oxy)methyl)phenoxy)prop-1-en-1-yl)-7-oxo-1-azabicyclo[3.2.0]hept-2-ene-2-carboxylate] | unreactive to the tested beta-lactamases |  |  |  |  |  |  |  | 
CC[Si](CC)(CC)O[C@H](C)[C@H]1C(=O)N2C(C(=O)O)=C(/C=C/COc3ccc(COc4ccc5nc6ccc(=O)cc-6oc5c4)cc3OC)C[C@H]12 [MCW-002, (5R,6S)-3-((E)-3-(2-methoxy-4-(((3-oxo-3H-phenoxazin-7-yl)oxy)methyl)phenoxy)prop-1-en-1-yl)-7-oxo-6-((R)-1-((triethylsilyl)oxy)ethyl)-1-azabicyclo[3.2.0]hept-2-ene-2-carboxylic acid] |  | pronounced increase in the fluorescent signal | minimal changes in the fluorescent signal | pronounced increase in the fluorescent signal |  | minimal changes in the fluorescent signal | minimal changes in the fluorescent signal | specific for NDM-1 and IMP-1, especially NDM-1 | relative rate of hydrolysis reaction (IMP-1): slower compared to the reaction with NDM-1
